Results as given in patent publication US9783586B2, “Inhibitors of the linear ubiquitin chain assembly complex (LUBAC) and related methods” (The United States of America, as represented by the …, priority 2013, dated 2017).
Positions of bridges follow the written chain, without caps; N, C: chain ends. Non-standard residues stand in square brackets, D forms with d. S5 = C=CCCC[C@](C)(N)C(=O)O; βAla = NCCC(=O)O

Experiments:
Format in all cases: cell-based
RBCK1/RNF31 interaction = target: T1, RBCK1/RNF31 interaction (Homo sapiens, UniProt Q9BYM8); experiment: RBCK1/RNF31 co-immunoprecipitation (LUBAC complex formation) in co-transfected HEK-293 cells; details: HEK-293 cells, 5 μM or 20 μM, 24 hours, relative to DMSO (FIGS. 5, 6)
T1 construct: expressed in transfected cells; host or cells: HEK-293
T1 sequence (Q9BYM8 1-510): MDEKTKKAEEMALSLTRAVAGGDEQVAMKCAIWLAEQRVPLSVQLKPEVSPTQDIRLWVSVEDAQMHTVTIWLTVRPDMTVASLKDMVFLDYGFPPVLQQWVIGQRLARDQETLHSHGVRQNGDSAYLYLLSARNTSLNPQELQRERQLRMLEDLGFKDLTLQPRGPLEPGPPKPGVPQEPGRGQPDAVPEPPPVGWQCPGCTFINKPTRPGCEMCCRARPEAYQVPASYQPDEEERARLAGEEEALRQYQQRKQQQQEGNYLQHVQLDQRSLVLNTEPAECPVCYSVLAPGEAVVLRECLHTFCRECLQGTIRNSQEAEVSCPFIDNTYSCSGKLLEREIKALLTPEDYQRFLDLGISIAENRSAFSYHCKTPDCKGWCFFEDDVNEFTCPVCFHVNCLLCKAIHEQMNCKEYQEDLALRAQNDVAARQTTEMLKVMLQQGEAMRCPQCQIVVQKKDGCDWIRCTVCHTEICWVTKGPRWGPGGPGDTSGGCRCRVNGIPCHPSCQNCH

ABC DLBCL cell lines = experiment: MTS cell viability assay, ABC DLBCL
Procedure: (§1) ABC and GCB DLBCL cell lines were treated with RNF31 stapled peptides of Table 2 at concentrations of 5 μM or 20 μM for four days. Cell viability was determined using the following MTS assay. Cells were plated in triplicate at a density of 15,000 cells per well in 96-well plates. Cell viability after indicated treatments was assayed by adding 3-(4,5-dimethylthiazol-2-yl)-5-(3-carboxymethoxyphenyl)-2-(4-sulphophenyl)-2H tetrazolium and an electron coupling reagent (phenazine methosulphate from Promega, Madison, Wis.), incubated for 3 hours and measured by the amount of 490 nm absorbance using a 96-well plate reader. The background was subtracted using a media only control. The results of these MTS assays done in triplicate are shown in FIGS. 7A-7D (error bars indicate the SEM), and cell viability is expressed as the fraction of cells remaining after four days treatment, relative to the initial number of cells at the start of treatment (time 0). The results of MTS cell viability assay indicate that amino-terminal cross-linked peptides RNF31-N (SEQ ID NO: 11) and RNF31-NC (SEQ ID NO: 12) were toxic to ABC DLBCL cell lines but had little effect on GCB DLBCL cell lines tested.

GCB DLBCL cell lines = experiment: MTS cell viability assay, GCB DLBCL; details: 5 μM or 20 μM, four days (FIGS. 7A-7D)
Procedure: as §1

NF-κB = NF-κB luciferase reporter assay; details: for Relative NF-κB-luciferase reporter activity: HBL1 ABC DLBCL cells, 5 μM or 20 μM, 2 days, relative to DMSO (FIG. 4)
Procedure: A third experiment was done using a different reporter system for NF-κB activity. HBL1 and TMD8 ABC DLBCL lines cell lines were created with an NF-κB transcriptional reporter by transduction with lentiviral particles containing an inducible NF-κB-responsive luciferase reporter construct (SA Biosciences, Valencia, Calif.) and selected with puromycin. Luciferase activity was measured using the DUAL-LUCIFERASE™ Reporter Assay System (Promega) on a Microtiter Plate Luminometer (Dyn-Ex Technologies, Chantilly, Va.). The transduced HBL and TMD8 cell lines were then transfected with constructs that inducibly express control (SC4) or RNF31 shRNAs described above. Expression of shRNAs was induced using doxycyline, and the luciferase reporter activity in shRNF31 expression cells was measured and normalized relative to control (SC4). Cells were also treated with the specific IKKβ inhibitor (MLN120B) as a positive control. Experiments were done in triplicate, and results are shown in FIG. 2C (error bars indicate SEM).
The ability of these peptides to inhibit NF-κB activity in ABC DLBCL was determined using the NF-κB luciferase reporter assay described above. Negative control cells were treated with dimethyl sulfoxide (DMSO), and positive control cells were treated with Bruton's tyrosine kinase (Btk) inhibitor ibrutinib. […] Cells were treated with peptides at concentrations of 5 μM or 20 μM for 2 days. Relative NF-κB-luciferase reporter activity was normalized and measured relative to control (DMSO-treated) cells. The results of triplicate experiments are shown in FIG. 4 (error bars indicate the SEM).

IκBα = experiment: IκBα-luciferase reporter assay; details: ABC DLBCL cells, Example 10 (FIG. 8B)
Excerpt: In a second experiment, HBL1 and TMD8 ABC DLBCL lines were engineered to contain an NF-κB-driven luciferase reporter. Vectors expressing an IκBα-luciferase fusion protein were constructed using Photinus luciferase from pGL3 vector (Promega, Madison, Wis.) as the reporter and Renilla luciferase construct from phRL-TK (Promega) was used for normalization. Stable clones were identified that were responsive to […] (see Lam et al, Clin Cancer Res, 11: 28-40 (2005)). After development with the DUAL-GLO luciferase assay system (Promega), the ratio of IκBα-Photinus to Renilla luminescence was normalized to that in untreated or uninduced cultures. The IκBα assay, which relies on the correlation between NF-κB activity and IKKβ kinase activity, was previously described in Lenz et al, Science, 319: 1676-1679 (2008). In brief, IKKβ kinase phosphorylates IκBα, which leads to degradation of IκBα (an inhibitor of NF-κB) and thereby activates NF-κB.
The engineered cells were transfected with control (SC4) or RNF31 shRNAs under the control of a doxycyline promoter as described in Example 2. Expression of shRNA was induced with doxycyline, and relative amounts of NF-κB Luciferase reporter activity was measured and normalized relative to control (SC4) shRNA. As additional controls, the expression of NF-κB Luciferase reporter activity was measured in cells that were not expressing shRNAs and which were either treated with the specific IKKβ inhibitor (“MLM-120B”) or untreated (“No Rx”). Experiments were done in triplicate and the results are shown in FIG. 2B (error bars indicate standard error of the mean (SEM)).

[1] = ABC DLBCL cell lines, 5 μM or 20 μM, four days (FIGS. 7A-7D)

| Substance | RBCK1/RNF31 interaction (anti-HA immunoprecipitation, densitometry) (RBCK1/RNF31 interaction) | Cell viability (MTS) (ABC DLBCL cell lines; [1]) | Cell viability (MTS) (GCB DLBCL cell lines) | Relative NF-κB-luciferase reporter activity (NF-κB) | Cell viability (MTS) (ABC DLBCL cell lines; ABC DLBCL cells, Example 10 (FIG. 8C)) | IκBα activity (IκBα-reporter) (IκBα) | NF-κB activity (NF-κB; ABC DLBCL cells, Example 10 (FIG. 8A)) |
| --- | --- | --- | --- | --- | --- | --- | --- |
| Ac-βAla Ser Arg Xaa Leu Thr Glu Xaa Gln Arg Gln Arg Leu Glu Pro Phe Arg Gln Arg Xaa Trp Asp Ser Xaa-NH2 (Ac-[βAla]SR[S5]LTE[S5]QRQRLEPFRQR[S5]WDS[S5]-NH2; staple 20-24, 4-8; SMILES CC(=O)NCCC(=O)N[C@@H](CO)C(=O)N[C@@H](CCCNC(=N)N)C(=O)N[C@@]1(C)CCCC=CCCC[C@@](C)(C(=O)N[C@@H](CCC(N)=O)C(=O)N[C@@H](CCCNC(=N)N)C(=O)N[C@@H](CCC(N)=O)C(=O)N[C@@H](CCCNC(=N)N)C(=O)N[C@@H](CC(C)C)C(=O)N[C@@H](CCC(=O)O)C(=O)N2CCC[C@H]2C(=O)N[C@@H](Cc2ccccc2)C(=O)N[C@@H](CCCNC(=N)N)C(=O)N[C@@H](CCC(N)=O)C(=O)N[C@@H](CCCNC(=N)N)C(=O)N[C@@]2(C)CCCC=CCCC[C@@](C)(C(N)=O)NC(=O)[C@H](CO)NC(=O)[C@H](CC(=O)O)NC(=O)[C@H](Cc3c[nH]c4ccccc34)NC2=O)NC(=O)[C@H](CCC(=O)O)NC(=O)[C@H]([C@@H](C)O)NC(=O)[C@H](CC(C)C)NC1=O) [RNF31-NC] | inhibited RBCK1/RNF31 interaction in a dose-dependent fashion | toxic | little effect | strongly inhibit NF-κB | – | – | – |
| Ac-βAla Ser Arg Xaa Leu Thr Glu Xaa Gln Arg Gln Arg Leu Glu Pro Phe Arg Gln Arg Leu Trp Asp Ser-NH2 (Ac-[βAla]SR[S5]LTE[S5]QRQRLEPFRQRLWDS-NH2; staple 4-8; SMILES CC(=O)NCCC(=O)N[C@@H](CO)C(=O)N[C@@H](CCCNC(=N)N)C(=O)N[C@@]1(C)CCCC=CCCC[C@@](C)(C(=O)N[C@@H](CCC(N)=O)C(=O)N[C@@H](CCCNC(=N)N)C(=O)N[C@@H](CCC(N)=O)C(=O)N[C@@H](CCCNC(=N)N)C(=O)N[C@@H](CC(C)C)C(=O)N[C@@H](CCC(=O)O)C(=O)N2CCC[C@H]2C(=O)N[C@@H](Cc2ccccc2)C(=O)N[C@@H](CCCNC(=N)N)C(=O)N[C@@H](CCC(N)=O)C(=O)N[C@@H](CCCNC(=N)N)C(=O)N[C@@H](CC(C)C)C(=O)N[C@@H](Cc2c[nH]c3ccccc23)C(=O)N[C@@H](CC(=O)O)C(=O)N[C@@H](CO)C(N)=O)NC(=O)[C@H](CCC(=O)O)NC(=O)[C@H]([C@@H](C)O)NC(=O)[C@H](CC(C)C)NC1=O) [RNF31-N] | inhibited RBCK1/RNF31 interaction in a dose-dependent fashion | toxic | little effect | strongly inhibit NF-κB | – | – | – |
| Ac-βAla Ser Arg Ala Leu Thr Glu Leu Gln Arg Gln Arg Leu Glu Pro Phe Arg Gln Arg Leu Trp Asp Ser-NH2 (Ac-[βAla]SRALTELQRQRLEPFRQRLWDS-NH2; SMILES CC(=O)NCCC(=O)N[C@@H](CO)C(=O)N[C@@H](CCCNC(=N)N)C(=O)N[C@@H](C)C(=O)N[C@@H](CC(C)C)C(=O)N[C@H](C(=O)N[C@@H](CCC(=O)O)C(=O)N[C@@H](CC(C)C)C(=O)N[C@@H](CCC(N)=O)C(=O)N[C@@H](CCCNC(=N)N)C(=O)N[C@@H](CCC(N)=O)C(=O)N[C@@H](CCCNC(=N)N)C(=O)N[C@@H](CC(C)C)C(=O)N[C@@H](CCC(=O)O)C(=O)N1CCC[C@H]1C(=O)N[C@@H](Cc1ccccc1)C(=O)N[C@@H](CCCNC(=N)N)C(=O)N[C@@H](CCC(N)=O)C(=O)N[C@@H](CCCNC(=N)N)C(=O)N[C@@H](CC(C)C)C(=O)N[C@@H](Cc1c[nH]c2ccccc12)C(=O)N[C@@H](CC(=O)O)C(=O)N[C@@H](CO)C(N)=O)[C@@H](C)O) [RNF31-wt] | little if any effect | – | – | less of an effect | decreased cell viability | decreased IκBα activity | inhibited NF-κB activity |
